Results from patent US3996359A, “Novel stereoisomeric component A of stereoisomeric mixtures of 2'-unsymmetrical 16,17-methylenedioxy steroid 21-acylates, compositions thereof, and method of treating therewith” (AB Bofors, priority 1972, dated 1976).

Test system: rats subjected to adrenalectomy (granuloma around implanted cotton wads)
Assay: granulom test (cotton-pellet test) on rats subjected to adrenalectomy: granuloma growth, thymus weight, body weight increase
Type: in vivo, rat (Sprague-Dawley)
Conditions: for Dose required to obtain 50% inhibition of Granuloma growth: Table 3, adrenalectomized young male Sprague-Dawley rats, topical in implanted cotton wads, day 8; for Dose required to obtain 25% inhibition of Body weight Increase / Dose required to obtain 50% inhibition of Thymus weight: 11520 min

## CC1O[C@@H]2C[C@H]3[C@@H]4C[C@H](F)C5=CC(=O)C=C[C@]5(C)[C@@]4(F)[C@@H](O)C[C@]3(C)[C@]2(C(=O)COC(=O)c2cc3ccccc3o2)O1 (stereo partly shown) [23 B]
Table 4, ED25 body weight increase inhibition over ED50 granuloma formation inhibition
  Therapeutic ratio body weight/granuloma: > 1.0
Table 4, ED50 thymus weight inhibition divided by ED50 granuloma formation inhibition
  Therapeutic ratio thymus/granuloma: > 1.3
rat, in vivo
  ED25 body weight increase inhibition: 3 µg/animal
  ED50 thymus weight inhibition: 4 µg/animal

## CC1(C)O[C@@H]2C[C@H]3[C@@H]4C[C@H](F)C5=CC(=O)C=C[C@]5(C)[C@@]4(F)[C@@H](O)C[C@]3(C)[C@]2(C(=O)CO)O1 [Fluocinolone acetonide, reference compound]
  Dose required to obtain 50% inhibition of Granuloma growth: ~50 γ/animal
rat, in vivo
  decrease of body weight growth at the dose giving 50% inhibition of granulom growth: heavy decrease
  decrease of thymus weight at the dose giving 50% inhibition of granulom growth: heavy decrease
  Dose required to obtain 25% inhibition of Body weight Increase: 20 γ/animal
  Dose required to obtain 50% inhibition of Thymus weight: 14 γ/animal

## CC1(C)O[C@@H]2C[C@H]3[C@@H]4CCC5=CC(=O)C=C[C@]5(C)[C@H]4[C@@H](O)C[C@]3(C)[C@]2(C(=O)CO)O1 [Prednacinolone acetonide, reference compound]
  Dose required to obtain 50% inhibition of Granuloma growth: 270 γ/animal
rat, in vivo
  Dose required to obtain 25% inhibition of Body weight Increase: > 270 γ/animal
  Dose required to obtain 50% inhibition of Thymus weight: 105 γ/animal

## CC1(C)O[C@@H]2C[C@H]3[C@@H]4CCC5=CC(=O)C=C[C@]5(C)[C@@]4(F)[C@@H](O)C[C@]3(C)[C@]2(C(=O)CO)O1 [Triamcinolone acetonide, reference compound]
rat, in vivo
  decrease of body weight growth at the dose giving 50% inhibition of granulom growth: heavy decrease
  decrease of thymus weight at the dose giving 50% inhibition of granulom growth: heavy decrease
  Dose required to obtain 25% inhibition of Body weight Increase: 100 γ/animal
  Dose required to obtain 50% inhibition of Thymus weight: 70 γ/animal
